SMILES strings stand for the structures. Values joined by “and” are separate entries in the source; they are usually repeats but may differ in a detail not shown here. Equal entries are not always repeated. Inconclusive results and toxic doses are left out.

The assay concerns L1210 leukemia ip in BDF1 mice, survival T/C. As to the kind of experiment: NCI In Vivo Anticancer Drug Screen. Data for tumor model L1210 Leukemia (intraperitoneal) in B6D2F1 (BDF1) mice. To be noted: endpoint: mean survival time, higher = longer survival. An outline of the steps:
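Tumor cells were implanted, animals were treated, and survival was followed. The result divides the treated measurement by the vehicle-control measurement.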

Where [1] appears, read: dose: 100.0 mg/kg/injection, schedule: Q04DX003 (ip), vehicle: saline with Tween-80.
The mark [2] stands for this setting: dose: 200.0 mg/kg/injection, schedule: Q04DX003 (ip), vehicle: saline with Tween-80.
[3] abbreviates: dose: 400.0 mg/kg/injection, schedule: Q04DX003 (ip), vehicle: saline with Tween-80.
[4] abbreviates: dose: 100.0 mg/kg/injection, schedule: Q04DX003 (ip), vehicle: Klucel (hydroxypropylcellulose) (HPC).
Setting [5] is: dose: 200.0 mg/kg/injection, schedule: Q04DX003 (ip), vehicle: Klucel (hydroxypropylcellulose) (HPC).
The mark [6] stands for this setting: dose: 400.0 mg/kg/injection, schedule: Q04DX003 (ip), vehicle: Klucel (hydroxypropylcellulose) (HPC).
The mark [7] stands for this setting: dose: 100.0 mg/kg/injection, schedule: Q04DX002 (ip), vehicle: saline with Tween-80.
[8] abbreviates: dose: 200.0 mg/kg/injection, schedule: Q04DX002 (ip), vehicle: saline with Tween-80.
[9] abbreviates: dose: 400.0 mg/kg/injection, schedule: Q04DX002 (ip), vehicle: saline with Tween-80.
[10] abbreviates: dose: 50.0 mg/kg/injection, schedule: Q01DX009 (ip), vehicle: saline with Tween-80.
Setting [11] is: dose: 100.0 mg/kg/injection, schedule: Q01DX009 (ip), vehicle: saline with Tween-80.
[12] abbreviates: dose: 200.0 mg/kg/injection, schedule: Q01DX009 (ip), vehicle: saline with Tween-80.
[13] abbreviates: dose: 400.0 mg/kg/injection, schedule: Q01DX009 (ip), vehicle: saline with Tween-80.

With `CN=C(NC)c1ccc(NC(=O)c2cc(C)cc(C(=O)Nc3ccc(C(=NC)NC)cc3)c2)cc1`, the T/C runs as follows: (dose: 1.88 mg/kg/injection, schedule: Q01DX Z (ip), vehicle: saline) 89 % of control; (dose: 3.75 mg/kg/injection, schedule: Q01DX Z (ip), vehicle: saline) 91 % of control; (dose: 7.5 mg/kg/injection, schedule: Q01DX Z (ip), vehicle: saline) 91 % of control; (dose: 15.0 mg/kg/injection, schedule: Q01DX Z (ip), vehicle: saline) 98 % of control and 107 % of control; (dose: 30.0 mg/kg/injection, schedule: Q01DX Z (ip), vehicle: saline) 101 % of control.
On to `O=c1oc(-c2cc([N+](=O)[O-])ccc2Cl)nc2ccccc12`, for which the T/C runs as follows: under setting [1], 100 % of control; under setting [2], 93 % of control.
As to `O=C1NC(c2ccccc2)C(=O)N1CCN(CCCl)CCCl` (stereo not given), the T/C (dose: 3.12 mg/kg/injection, schedule: Q01DX009 (ip), vehicle: saline) was 102 % of control; the T/C (dose: 3.12 mg/kg/injection, schedule: Q04DX003 (ip), vehicle: saline) was 98 % of control; the T/C (dose: 6.25 mg/kg/injection, schedule: Q01DX009 (ip), vehicle: saline) was 97 % of control; the T/C (dose: 6.25 mg/kg/injection, schedule: Q04DX003 (ip), vehicle: saline) was 106 % of control; the T/C (dose: 12.5 mg/kg/injection, schedule: Q01DX009 (ip), vehicle: saline) was 100 % of control; the T/C (dose: 12.5 mg/kg/injection, schedule: Q04DX003 (ip), vehicle: saline) was 103 % of control. For the setting “dose: 25.0 mg/kg/injection, schedule: Q04DX003 (ip), vehicle: saline”, the T/C is 115 % of control.
`CCCCCCCCCCCCN=c1nc(N)ccn1C1OC(CO)C(O)C1O` (stereo not given): the T/C is 110 % of control (dose: 12.5 mg/kg/injection, schedule: Q01DX005 (ip), vehicle: saline) and 116 % of control (dose: 25.0 mg/kg/injection, schedule: Q01DX005 (ip), vehicle: saline).
As to `CCOC(=O)C1CCC/C1=N\N=C(N)N` (stereo not given) (tested in a mixture with another compound), the T/C is 95 % of control (dose: 15.0 mg/kg/injection, schedule: Q01DX Z (ip), vehicle: methylcellulose (MC)); 102 % of control (dose: 30.0 mg/kg/injection, schedule: Q01DX Z (ip), vehicle: methylcellulose (MC)); 104 % of control (dose: 60.0 mg/kg/injection, schedule: Q01DX Z (ip), vehicle: methylcellulose (MC)); 86 % of control (dose: 60.0 mg/kg/injection, schedule: Q01DX Z (oral), vehicle: methylcellulose (MC)); 97 % of control (dose: 120.0 mg/kg/injection, schedule: Q01DX Z (ip), vehicle: methylcellulose (MC)); 94 % of control (dose: 120.0 mg/kg/injection, schedule: Q01DX Z (oral), vehicle: methylcellulose (MC)). Further, the T/C (dose: 240.0 mg/kg/injection, schedule: Q01DX Z (oral), vehicle: methylcellulose (MC)) is 92 % of control.
For `CC1(C)N=C(N)N=C(N)N1c1cccc(CC(C(=O)Nc2ccc(S(=O)(=O)F)cc2)c2ccccc2)c1` (stereo not given), the T/C reads like this: (dose: 25.0 mg/kg/injection, schedule: Q01DX001 (ip), vehicle: Klucel (hydroxypropylcellulose) (HPC)) 95 % of control; (dose: 50.0 mg/kg/injection, schedule: Q01DX001 (ip), vehicle: Klucel (hydroxypropylcellulose) (HPC)) 95 % of control; (dose: 100.0 mg/kg/injection, schedule: Q01DX001 (ip), vehicle: Klucel (hydroxypropylcellulose) (HPC)) 94 % of control and 95 % of control; (dose: 200.0 mg/kg/injection, schedule: Q01DX001 (ip), vehicle: Klucel (hydroxypropylcellulose) (HPC)) 101 % of control.
On to `O=C(c1ccccc1)c1nonc1C(=O)c1ccccc1`, for which the T/C is 93 % of control (dose: 100.0 mg/kg/injection, schedule: Q01DX009 (ip), vehicle: saline sonified); 97 % of control under setting [1]; 90 % of control (dose: 200.0 mg/kg/injection, schedule: Q01DX009 (ip), vehicle: saline sonified); 92 % of control under setting [2]; 93 % of control (dose: 400.0 mg/kg/injection, schedule: Q01DX009 (ip), vehicle: saline sonified); 97 % of control under setting [3].
Consider `SCc1c(Cl)c(Cl)c(Cl)c(Cl)c1Cl.[Hg]`, for which the T/C is, setting by setting: under setting [4], 93 % of control; under setting [5], 91 % of control; under setting [6], 93 % of control.
Take `C=C(OCC)P(=O)(OCCCC)OCCCC`: the T/C under setting [7] was 100 % of control, the T/C under setting [8] was 90 % of control and the T/C under setting [9] is 93 % of control.
Take `N#CCC(=O)Cc1ccccc1[N+](=O)[O-]`: the T/C under setting [1] is 95 % of control, the T/C under setting [2] was 100 % of control and the T/C under setting [3] is 94 % of control.
Take `CN(C(=O)C1CCCCC1)C1CCCCC1O` (stereo not given): the T/C is, setting by setting: under setting [10], 101 % of control; under setting [11], 93 % of control; under setting [12], 90 % of control.
On to `COc1cc(C(C)O)cc(OC)c1OC` (stereo not given), for which the T/C by setting is: under setting [11], 101 % of control; under setting [1], 101 % of control; under setting [12], 98 % of control; under setting [2], 100 % of control; under setting [13], 93 % of control; under setting [3], 99 % of control.
Take `CCC(=O)c1ccc(OC(=O)Nc2ccc(Cl)cc2[N+](=O)[O-])cc1`: the T/C under setting [11] is 100 % of control and 92 % of control; the T/C under setting [7] is 97 % of control and 113 % of control; the T/C under setting [1] is 102 % of control; the T/C under setting [12] was 96 % of control and 103 % of control; the T/C under setting [8] was 97 % of control and 91 % of control; the T/C under setting [2] is 95 % of control. Also, the T/C was 92 % of control under setting [13]; 95 % of control and 92 % of control under setting [9]; 97 % of control under setting [3].
Consider `N#CC(Nc1ccccc1)c1ccc(Cl)cc1` (stereo not given), for which the T/C is, setting by setting: under setting [10], 101 % of control; under setting [11], 97 % of control; under setting [12], 94 % of control.
Consider `S=c1nc[nH]c2c1ncn2CN1CCCCC1`, for which the T/C is, setting by setting: (dose: 25.0 mg/kg/injection, schedule: Q01DX009 (ip), vehicle: other) 151 % of control; (dose: 25.0 mg/kg/injection, schedule: Q01DX Z (ip), vehicle: carboxymethylcellulose (CMC)) 109 % of control; (dose: 50.0 mg/kg/injection, schedule: Q01DX009 (ip), vehicle: other) 192 % of control; (dose: 50.0 mg/kg/injection, schedule: Q01DX Z (ip), vehicle: carboxymethylcellulose (CMC)) 102 % of control; (dose: 100.0 mg/kg/injection, schedule: Q01DX009 (ip), vehicle: other) 116 % of control; (dose: 100.0 mg/kg/injection, schedule: Q01DX Z (ip), vehicle: carboxymethylcellulose (CMC)) 120 % of control. Further, for the setting “dose: 200.0 mg/kg/injection, schedule: Q01DX009 (ip), vehicle: other”, the T/C was 102 % of control.
For the compound `FC(F)=C(F)I`, the T/C (dose: 50.0 mg/kg/injection, schedule: Q01DX005 (ip), vehicle: other) is 102 % of control; the T/C (dose: 100.0 mg/kg/injection, schedule: Q01DX005 (ip), vehicle: other) was 87 % of control; the T/C (dose: 100.0 mg/kg/injection, schedule: Q04DX002 (ip), vehicle: other) was 98 % of control; the T/C (dose: 200.0 mg/kg/injection, schedule: Q01DX005 (ip), vehicle: other) is 94 % of control; the T/C (dose: 200.0 mg/kg/injection, schedule: Q04DX002 (ip), vehicle: other) is 104 % of control.
Take `Cc1cc(C)c(C(=O)c2ccccc2C(=O)OC(=O)c2ccccc2C(=O)c2c(C)cc(C)cc2C)c(C)c1`: under setting [7], the T/C was 88 % of control.
`O=C(O)C1C2CCC3C(C(=O)O)C3C21` (stereo not given): the T/C (dose: 100.0 mg/kg/injection, schedule: Q01DX009 (ip), vehicle: Klucel (hydroxypropylcellulose) (HPC)) is 100 % of control; the T/C under setting [4] was 97 % of control; the T/C (dose: 200.0 mg/kg/injection, schedule: Q01DX009 (ip), vehicle: Klucel (hydroxypropylcellulose) (HPC)) is 97 % of control; the T/C under setting [5] is 101 % of control; the T/C (dose: 400.0 mg/kg/injection, schedule: Q01DX009 (ip), vehicle: Klucel (hydroxypropylcellulose) (HPC)) was 92 % of control; the T/C under setting [6] is 98 % of control.
With `CC1NC(=O)NC(=O)C1CCSCCC1C(=O)NC(=O)NC1C` (stereo not given), the T/C by setting is: (dose: 100.0 mg/kg/injection, schedule: Q01DX001 (ip), vehicle: saline) 96 % of control; (dose: 200.0 mg/kg/injection, schedule: Q01DX001 (ip), vehicle: saline) 109 % of control; (dose: 400.0 mg/kg/injection, schedule: Q01DX001 (ip), vehicle: saline) 104 % of control.
